# According to the supplement of paper PMC10307832:
# Experiments:
# Test in all cases: relative viability (nuclei count vs DMSO), 5 days (fraction); higher = more cells survive
# 201T = system: 201T
# Method in brief: (§1)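 Relative viability equals treated-well nuclei counts divided by vehicle-well nuclei counts. Counts came from 4× images of lung cancer cell lines grown in 1536-well plates for 5 days after pin-tool dosing on the day after seeding. Dosing used one drug alone or a fixed anchor-drug dose plus five library-drug doses (not always all listed) in √10 steps, and values are medians of duplicate plates.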
# A-427 = system: A-427
# Method in brief: as §1
# BEN = system: BEN
# Method in brief: as §1
# COR-L23 = system: COR-L23
# Method in brief: as §1
# EKVX = system: EKVX
# Method in brief: as §1
# EMC-BAC-2 = system: EMC-BAC-2
# Method in brief: as §1
# EPLC-272H = system: EPLC-272H
# Method in brief: as §1
# HCC-44 = system: HCC-44
# Method in brief: as §1
# HCC-827 = system: HCC-827
# Method in brief: as §1
# LCLC-103H = system: LCLC-103H
# Method in brief: as §1
# LK-2 = system: LK-2
# Method in brief: as §1
# LXF-289 = system: LXF-289
# Method in brief: as §1
# NCI-H1650 = system: NCI-H1650
# Method in brief: as §1
# NCI-H1651 = system: NCI-H1651
# Method in brief: as §1
# NCI-H1793 = system: NCI-H1793
# Method in brief: as §1
# NCI-H1915 = system: NCI-H1915
# Method in brief: as §1
# NCI-H2087 = system: NCI-H2087
# Method in brief: as §1
# NCI-H2126 = system: NCI-H2126
# Method in brief: as §1
# NCI-H2347 = system: NCI-H2347
# Method in brief: as §1
# NCI-H358 = system: NCI-H358
# Method in brief: as §1
# NCI-H460 = system: NCI-H460
# Method in brief: as §1
# NCI-H596 = system: NCI-H596
# Method in brief: as §1
# SW 1573 = system: SW 1573
# Method in brief: as §1
compound,measurement,setting,value
O=c1[nH]c2ccccc2n1C1CCN(CCCC(c2ccc(F)cc2)c2ccc(F)cc2)CC1 [Pimozide] + CS(=O)(=O)N1CCN(Cc2cc3nc(-c4cccc5[nH]ncc45)nc(N4CCOCC4)c3s2)CC1 [Pictilisib] (partner 1 µM),relative viability,201T; first compound 0.08 µM,0.69
same,relative viability,201T; first compound 0.253 µM,0.613
same,relative viability,201T; first compound 0.8 µM,0.6
same,relative viability,201T; first compound 2.53 µM,0.669
same,relative viability,201T; first compound 8 µM,0.599
same,relative viability,A-427; first compound 0.08 µM,0.723
same,relative viability,A-427; first compound 0.253 µM,0.729
same,relative viability,A-427; first compound 0.8 µM,0.538
same,relative viability,A-427; first compound 2.53 µM,0.68
same,relative viability,A-427; first compound 8 µM,0.668
same,relative viability,BEN; first compound 0.08 µM,0.627
same,relative viability,BEN; first compound 0.253 µM,0.565
same,relative viability,BEN; first compound 0.8 µM,0.583
same,relative viability,BEN; first compound 2.53 µM,0.542
same,relative viability,BEN; first compound 8 µM,0.595
same,relative viability,COR-L23; first compound 0.08 µM,0.705
same,relative viability,COR-L23; first compound 0.253 µM,0.75
same,relative viability,COR-L23; first compound 0.8 µM,0.638
same,relative viability,COR-L23; first compound 2.53 µM,0.702
same,relative viability,COR-L23; first compound 8 µM,0.632
same,relative viability,EKVX; first compound 0.253 µM,0.349
same,relative viability,EKVX; first compound 0.8 µM,0.431
same,relative viability,EKVX; first compound 2.53 µM,0.409
same,relative viability,EKVX; first compound 8 µM,0.401
same,relative viability,EMC-BAC-2; first compound 0.08 µM,0.486
same,relative viability,EMC-BAC-2; first compound 0.253 µM,0.51
same,relative viability,EMC-BAC-2; first compound 0.8 µM,0.549
same,relative viability,EMC-BAC-2; first compound 2.53 µM,0.532
same,relative viability,EMC-BAC-2; first compound 8 µM,0.54
same,relative viability,EPLC-272H; first compound 0.08 µM,0.302
same,relative viability,EPLC-272H; first compound 0.253 µM,0.269
same,relative viability,EPLC-272H; first compound 0.8 µM,0.273
same,relative viability,EPLC-272H; first compound 2.53 µM,0.258
same,relative viability,EPLC-272H; first compound 8 µM,0.238
same,relative viability,HCC-44; first compound 0.08 µM,0.58
same,relative viability,HCC-44; first compound 0.253 µM,0.695
same,relative viability,HCC-44; first compound 0.8 µM,0.565
same,relative viability,HCC-44; first compound 2.53 µM,0.576
same,relative viability,HCC-44; first compound 8 µM,0.558
same,relative viability,HCC-827; first compound 0.253 µM,1.02
same,relative viability,HCC-827; first compound 0.8 µM,0.986
same,relative viability,HCC-827; first compound 2.53 µM,1.04
same,relative viability,HCC-827; first compound 8 µM,1.06
same,relative viability,LCLC-103H; first compound 0.08 µM,0.593
same,relative viability,LCLC-103H; first compound 0.253 µM,0.513
same,relative viability,LCLC-103H; first compound 0.8 µM,0.466
same,relative viability,LCLC-103H; first compound 2.53 µM,0.574
same,relative viability,LCLC-103H; first compound 8 µM,0.528
same,relative viability,LK-2; first compound 0.08 µM,0.556
same,relative viability,LK-2; first compound 0.253 µM,0.605
same,relative viability,LK-2; first compound 0.8 µM,0.454
same,relative viability,LK-2; first compound 2.53 µM,0.547
same,relative viability,LK-2; first compound 8 µM,0.553
same,relative viability,LXF-289; first compound 0.08 µM,0.75
same,relative viability,LXF-289; first compound 0.253 µM,0.799
same,relative viability,LXF-289; first compound 0.8 µM,0.781
same,relative viability,LXF-289; first compound 2.53 µM,0.744
same,relative viability,LXF-289; first compound 8 µM,0.719
same,relative viability,NCI-H1650; first compound 0.08 µM,0.589
same,relative viability,NCI-H1650; first compound 0.253 µM,0.489
same,relative viability,NCI-H1650; first compound 0.8 µM,0.461
same,relative viability,NCI-H1650; first compound 2.53 µM,0.547
same,relative viability,NCI-H1650; first compound 8 µM,0.182
same,relative viability,NCI-H1651; first compound 0.08 µM,0.62
same,relative viability,NCI-H1651; first compound 0.253 µM,0.506
same,relative viability,NCI-H1651; first compound 0.8 µM,0.685
same,relative viability,NCI-H1651; first compound 2.53 µM,0.543
same,relative viability,NCI-H1651; first compound 8 µM,0.465
same,relative viability,NCI-H1793; first compound 0.08 µM,0.296
same,relative viability,NCI-H1793; first compound 0.253 µM,0.302
same,relative viability,NCI-H1793; first compound 0.8 µM,0.311
same,relative viability,NCI-H1793; first compound 2.53 µM,0.357
same,relative viability,NCI-H1793; first compound 8 µM,0.275
same,relative viability,NCI-H1915; first compound 0.08 µM,0.972
same,relative viability,NCI-H1915; first compound 0.253 µM,0.892
same,relative viability,NCI-H1915; first compound 0.8 µM,0.524
same,relative viability,NCI-H1915; first compound 2.53 µM,0.889
same,relative viability,NCI-H1915; first compound 8 µM,0.796
same,relative viability,NCI-H2087; first compound 0.08 µM,0.9
same,relative viability,NCI-H2087; first compound 0.253 µM,0.994
same,relative viability,NCI-H2087; first compound 0.8 µM,0.824
same,relative viability,NCI-H2087; first compound 2.53 µM,0.784
same,relative viability,NCI-H2087; first compound 8 µM,0.62
same,relative viability,NCI-H2126; first compound 0.08 µM,0.437
same,relative viability,NCI-H2126; first compound 0.253 µM,0.468
same,relative viability,NCI-H2126; first compound 0.8 µM,0.512
same,relative viability,NCI-H2126; first compound 2.53 µM,0.499
same,relative viability,NCI-H2126; first compound 8 µM,0.539
same,relative viability,NCI-H2347; first compound 0.08 µM,0.611
same,relative viability,NCI-H2347; first compound 0.253 µM,0.599
same,relative viability,NCI-H2347; first compound 0.8 µM,0.601
same,relative viability,NCI-H2347; first compound 2.53 µM,0.605
same,relative viability,NCI-H2347; first compound 8 µM,0.605
same,relative viability,NCI-H358; first compound 0.08 µM,0.292
same,relative viability,NCI-H358; first compound 0.253 µM,0.324
same,relative viability,NCI-H358; first compound 0.8 µM,0.384
same,relative viability,NCI-H358; first compound 2.53 µM,0.356
same,relative viability,NCI-H358; first compound 8 µM,0.396
same,relative viability,NCI-H460; first compound 0.08 µM,0.236
same,relative viability,NCI-H460; first compound 0.253 µM,0.385
same,relative viability,NCI-H460; first compound 0.8 µM,0.386
same,relative viability,NCI-H460; first compound 2.53 µM,0.353
same,relative viability,NCI-H460; first compound 8 µM,0.366
same,relative viability,NCI-H596; first compound 0.08 µM,0.414
same,relative viability,NCI-H596; first compound 0.253 µM,0.488
same,relative viability,NCI-H596; first compound 0.8 µM,0.251
same,relative viability,NCI-H596; first compound 2.53 µM,0.356
same,relative viability,NCI-H596; first compound 8 µM,0.344
same,relative viability,SW 1573; first compound 0.08 µM,0.534
same,relative viability,SW 1573; first compound 0.253 µM,0.462
same,relative viability,SW 1573; first compound 0.8 µM,0.47
same,relative viability,SW 1573; first compound 2.53 µM,0.449
same,relative viability,SW 1573; first compound 8 µM,0.416
